The source of these data is US20060263895A1, “Method for monitoring the stereoselectivity and relative rate of organic chemical reactions” (priority 2005, published 2006).

Test [1] in a line: HKR of (±)-propylene oxide under standard neat 'Jacobsen conditions' (NMR conversion, chiral HPLC ee). To be noted: for NMR conv. (time) / % ee (HPLC): loading 0.25 mol %; for % ee (HPLC): reaction stopped at the time given (mostly 3 h); for % ee (HPLC) / % ee of the 1,2-propanediol product, as observed by chiral HPLC (lower number): + = (S), − = (R); for % ee of the 1,2-propanediol product, as observed by chiral HPLC (lower number): neat propylene oxide, 0.55 equiv. H2O, 0.25 mol % catalyst, 3 h reaction time. Here is the method: Salens in the fully synthetic, 42 member focused library that led to catalysts with appreciable activity, as indicated by double cuvette-ISES, were also evaluated ‘outside of the cuvette,’ under conditions more typically employed in HKR reactions. Specifically, these Co(III)-salen catalysts were evaluated in the HKR of (±)-propylene oxide, under neat conditions, similar to those described by Jacobsen and coworkers. Reactions were arbitrarily stopped after 3 hours, to obtain the enantiopurity of the 1,2-propanediol product at relatively early reaction times, for comparison with ISES predictions.
A typical procedure follows: To the Co(III)-salen catalyst derived from 7e (5.4 mg, 5.4 μmol, 0.25 mol %) and (±)-propylene oxide (125 mg, 2.15 mmol) at 0° C., was added water (21 μL, 1.18 mmol, 0.55 equiv.). The reaction mixture was securely capped, and allowed to warm to room temperature and stirred, most commonly for a total of 3 hours. Percent conversion at 3 hours was evaluated by 1H NMR of an aliquot (cooled to 0° C. for the transfer), in CDCl3. In most of these cases, the conversion was low enough after 3 hours, that the unreacted epoxide (bp 32° C.) was of relatively low ee, and was therefore removed by evaporation under aspirator vacuum. When the conversion was less than 5% by NMR after 3 hours, reactions were continued for longer times.
Upon termination of the reaction, the diol product was isolated by Kugelrohr distillation (˜120° C.-oven temp; 0.1 torr). To determine ee, the isolated diol was derivatized using p-bromobenzoyl imidazole (2.2 equiv.) in THF in the presence of NaH (4 equiv.) at room temperature for 5 min. The bis(p-bromobenzoate) esters obtained following sequential washes with 1 N HCl and saturated sodium bicarbonate, were of sufficient purity to be used directly for chiral HPLC analysis (Chiralcel OD, 99% […]). [drawing 23] [drawing 24] [drawing 25] [drawing 26] [drawing 27]

A short description of test [2]: Double cuvette-ISES (in situ enzymatic screening) of Co(III)-salen mediated HKR of (±)-propylene oxide. To be noted: for % ee of the 1,2-propanediol product, as predicted by double-cuvette ISES (upper number): bilayer of pH 8.6 buffer over 7.2 M epoxide in CHCl3, 0.25 mol % catalyst, 15-35 min, + = (S), − = (R); for ISES signal: over 35 min. Here is the method: Aqueous reporting layers. containing TBADH/NADP+ (cuvette 1) and HLADH/NAD+ (cuvette 2), respectively, are then added. The increase in absorbance at 340 nm can be followed for several such sets in parallel by UV-vis spectrophotometry. The kinetic data are then used to make the double-cuvette ISES predictions.
A general procedure for double cuvette-ISES to estimate both enantioselectivities and relative rates for an array of catalysts being screened in parallel is presented below. The hydrolytic kinetic resolution (HKR) of (±) propylene oxide was chosen as model reaction.
Typically, quartz cuvettes with one cm light paths and with nominal one mL volumes were used. For each catalyst, a two cuvette screen was performed, with cuvette A containing HLADH, as (S)-propanediol-selective reporting enzyme, and cuvette B containing TBADH, as a (R)-propanediol-selective reporting enzyme. For each cuvette, the final volume was 800 μL (300 μL of organic layer; 500 μL of aqueous layer).
Both cuvettes A and B had the following composition: 150 μL (2.15 mmol) of (±)-propylene oxide (7.2 M in organic layer), 150 μL of CHCl3 and 0.25 mol % Co(III)-salen catalyst. The total organic layer volume was maintained as 300 μL in all catalyst screens.
(i) Cuvette A: 0.35 U HLADH (17.6 μL from a stock solution (0.02U/μL)), 7.2 mM β-NAD+(16.5 μL from a 220 mM stock) and 465.8 μL of 50 mM sodium pyrophosphate buffer, pH 8.8. The final pH was 8.6.
(ii) Cuvette B: 0.35 U TBADH (15.8 μL from a stock solution (0.022U/μL)) of, 2.2 mM β-NADP+ (5 μL from a 220 mM stock) and 479.5 μL of 50 mM sodium pyrophosphate buffer, pH 8.8. The final pH was 8.6. The total volume of the aqueous layer was maintained as 500 μL in both cuvettes in all ISES experiments.
C. Step by Step Protocol: A catalyst stock solution (22 μmol of catalyst in 620 μL CHCl3) was made up in a 1.5 ml microcentrifuge tube, and stored on ice, along with a stock of (±)-propylene oxide, in a separate tube. The organic layers were prepared by briefly vortexing 150 μL (5.4 μmol, 0.25 mol %) of the catalyst stock in CHCl3 with 150 μL (2.15 mmol) of (±)-propylene oxide in iced microcentrifuge tubes. These were loaded into 1 mL quartz cuvettes using precooled (refrigerator), disposable 1 mL syringes. The aqueous layers were then layered on top of the organic layers, by syringe, down the walls of the cuvette.

For the molecule `Oc1c(I)cc(I)cc1C=NC[C@@H](N=Cc1cc(I)cc(I)c1O)c1ccccc1` [Salen 2e, N,N′-Bis(3′,5′-diiodosalicylidene)-(1S)-phenyl-1,2-ethylenediamine], the “NMR conv. (time)” value in test [1] (3 h) is recorded as 26 (3 h) %. In test [1], the “% ee (HPLC)” value is given as −41 (R) % ee and the “% ee of the 1,2-propanediol product, as observed by chiral HPLC (lower number)” value (from here on “% ee … (lower number)”) was −41 % ee. Besides, the “% ee of the 1,2-propanediol product, as predicted by double-cuvette ISES (upper number)” value in test [2] is on record as “+4 % ee”.

Consider `Oc1cc(OCc2ccccc2)ccc1C=NC[C@@H](N=Cc1ccc(OCc2ccccc2)cc1O)c1ccccc1` [Salen 2f, N,N′-Bis(4′-benzyloxysalicylidene)-(1S)-phenyl-1,2-ethylenediamine], for which the ISES signal result in test [2] is “§ (These catalysts gave ISES signals <20 mAbs min−1 over 35 min.)”.

Turning to `Oc1cc(OCc2ccccc2)ccc1C=NC[C@H](Cc1cccc2ccccc12)N=Cc1ccc(OCc2ccccc2)cc1O` [Salen 4f, N,N′-Bis(4′-benzyloxysalicylidene)-(1S)-(α-naphthylmethyl)-1,2-ethylenediamine], the “NMR conv. (time)” value in test [1] (21 h) is 24 (21 h) %. Also, in test [1], the “% ee (HPLC)” value is recorded as “+51 (S) % ee” and the “% ee … (lower number)” value was “+51 % ee”. For the same molecule, the “% ee of the 1,2-propanediol product, as predicted by double-cuvette ISES (upper number)” value in test [2] is “+57 % ee”.

Regarding `Oc1c(C=NC[C@@H](N=Cc2ccc3ccccc3c2O)c2ccccc2)ccc2ccccc12` [Salen 2d, N,N′-Bis(1′-hydroxy-2′-naphthylidene)-(1S)-phenyl-1,2-ethylenediamine], in test [1] (22 h), the “NMR conv. (time)” value is given as 19 (22 h) %. Also, in test [1], the “% ee (HPLC)” value is −54 (R) % ee and the “% ee … (lower number)” value is given as −54 % ee. Also, the “% ee of the 1,2-propanediol product, as predicted by double-cuvette ISES (upper number)” value in test [2] is on record as −15 % ee.

For the molecule `CO[C@H]1[C@@H]2OC(C)(C)O[C@@H]2COC1(CN=Cc1c(O)ccc2ccccc12)N=Cc1c(O)ccc2ccccc12` (some centres unmarked) [Salen 7c, N,N′-Bis(2′-hydroxy-1′-naphthylidene)-3-O-methyl-4,5-O-isopropylidene-1,2-dideoxy-Dfructopyranosyl-1,2-diamine], in test [1] (time not given), the “NMR conv. (time)” value is on record as “none obs”. Also, the ISES signal entry in test [2] is recorded as “§ (These catalysts gave ISES signals <20 mAbs min−1 over 35 min.)”.

With `CC1(C)CCN2CCC(C)(C)c3c(O)c(C=NC[C@H](Cc4ccc5ccccc5c4)N=Cc4cc5c6c(c4O)C(C)(C)CCN6CCC5(C)C)cc1c32` [Salen 5g, N,N′-Bis(8′-hydroxy-1′,1′,7′,7′-tetramethyljulolidinyl-9′-methylidene)-(1S)-(β-naphthylmethyl)-1,2-ethylenediamine], in test [2], the ISES signal result is on record as “§ (These catalysts gave ISES signals <20 mAbs min−1 over 35 min.)”.

For the molecule `Oc1ccc2ccccc2c1C=NC[C@H](Cc1cccc2ccccc12)N=Cc1c(O)ccc2ccccc12` [Salen 4c, N,N′-Bis(2′-hydroxy-1′-naphthylidene)-(1S)-(α-naphthylmethyl)-1,2-ethylenediamine], in test [2], the ISES signal result is “§ (These catalysts gave ISES signals <20 mAbs min−1 over 35 min.)”.

Regarding `Oc1ccc2ccccc2c1C=NC[C@@H](N=Cc1c(O)ccc2ccccc12)c1ccccc1` [Salen 2c, N,N′-Bis(2′-hydroxy-1′-naphthylidene)-(1S)-phenyl-1,2-ethylenediamine], the ISES signal entry in test [2] is on record as “§ (These catalysts gave ISES signals <20 mAbs min−1 over 35 min.)”.

Consider `CO[C@H]1[C@@H]2OC(C)(C)O[C@@H]2COC1(CN=Cc1c(O)ccc2ccccc12)N=Cc1c(O)ccc2ccccc12` (some centres unmarked) [Salen 6c, N,N′-Bis(2′-hydroxy-1′-naphthylidene)-3-O-methyl-4,5-O-isopropylidene-1,2-dideoxy-Dfructopyranosyl-1,2-diamine], for which the ISES signal result in test [2] is recorded as “§ (These catalysts gave ISES signals <20 mAbs min−1 over 35 min.)”.

As for `CC1(C)CCN2CCC(C)(C)c3c(O)c(C=NC[C@H](Cc4cccc5ccccc45)N=Cc4cc5c6c(c4O)C(C)(C)CCN6CCC5(C)C)cc1c32` [Salen 4g, N,N′-Bis(8′-hydroxy-1′,1′,7′,7′-tetramethyljulolidinyl-9′-methylidene)-(1S)-α-naphthylmethyl-1,2-ethylenediamine], the ISES signal result in test [2] was “§ (These catalysts gave ISES signals <20 mAbs min−1 over 35 min.)”.

As for “N,N′-Bis(8′-hydroxy-1′,1′,7′,7′-tetramethyljulolidine-9′-methylidene)-[1R-(1α,2α,5α)]-2-amino-7,7-dimethyl-2-bicyclo[3.3.1]heptane-ethanamine [Salen 1g]”, the ISES signal entry in test [2] is listed as “§ (These catalysts gave ISES signals <20 mAbs min−1 over 35 min.)”.

As to `Oc1ccc2ccccc2c1C=NC[C@H](Cc1ccc2ccccc2c1)N=Cc1c(O)ccc2ccccc12` [Salen 5c], the ISES signal entry in test [2] is “§ (These catalysts gave ISES signals <20 mAbs min−1 over 35 min.)”.

With “N,N′-Bis(2′-hydroxy-1′-naphthylidene)-[1R-(1α,2α,5α)]-2-amino-7,7-dimethyl-2-bicyclo[3.3.1]heptane-ethanamine [Salen 1c]”, in test [2], the ISES signal entry was “§ (These catalysts gave ISES signals <20 mAbs min−1 over 35 min.)”.

`Oc1c(I)cc(I)cc1C=NC[C@H](Cc1ccccc1)N=Cc1cc(I)cc(I)c1O` [Salen 3e, N,N′-Bis(3′,5′-diiodosalicylidene)-(1S)-benzyl-1,2-ethylenediamine]: the ISES signal result in test [2] is “§ (These catalysts gave ISES signals <20 mAbs min−1 over 35 min.)”.

For the molecule `COC1C2OC(C)(C)OC2COC1(CN=Cc1ccc(OCc2ccccc2)cc1O)N=Cc1ccc(OCc2ccccc2)cc1O` (stereo not drawn) [Salen 7f, N,N′-Bis(4′-benzyloxysalicylidene)-3-O-methyl-4,5-O-isopropylidene-1,2-dideoxy-β-Dfructopyranosyl-1,2-diamine], in test [2], the ISES signal entry is reported as “§ (These catalysts gave ISES signals <20 mAbs min−1 over 35 min.)”.

Regarding `Oc1cc(OCc2ccccc2)ccc1C=NC[C@H](Cc1ccccc1)N=Cc1ccc(OCc2ccccc2)cc1O` [Salen 3f, N,N′-Bis(4′-benzyloxysalicylidene)-(1S)-benzyl-1,2-ethylenediamine], the ISES signal entry in test [2] is given as “§ (These catalysts gave ISES signals <20 mAbs min−1 over 35 min.)”.

`Oc1cc(OCc2ccccc2)ccc1C=NC[C@H](Cc1ccc2ccccc2c1)N=Cc1ccc(OCc2ccccc2)cc1O` [Salen 5f, N,N′-Bis(4′-benzyloxysalicylidene)-(1S)-(β-naphthylmethyl)-1,2-ethylenediamine]: the ISES signal result in test [2] was “§ (These catalysts gave ISES signals <20 mAbs min−1 over 35 min.)”.

In the case of `COC1C2OC(C)(C)OC2COC1(CN=Cc1ccc2ccccc2c1O)N=Cc1ccc2ccccc2c1O` (stereo not drawn) [Salen 7d, N,N′-Bis(1′-hydroxy-2′-naphthylidene)-3-O-methyl-4,5-O-isopropylidene-1,2-dideoxy-β-Dfructopyranosyl-1,2-diamine], the ISES signal entry in test [2] was “§ (These catalysts gave ISES signals <20 mAbs min−1 over 35 min.)”.

“N,N′-Bis(4′-benzyloxysalicylidene)-[1R-(1α,2α,5α)]-2-amino-7,7-dimethyl-2-bicyclo[3.3.1]heptane-ethanamine [Salen 1f]”: the ISES signal result in test [2] was “§ (These catalysts gave ISES signals <20 mAbs min−1 over 35 min.)”.
